The target of experiment [1] is T1, ALDH1A1 (Homo sapiens, UniProt P00352).
T1 sequence (P00352 1-501): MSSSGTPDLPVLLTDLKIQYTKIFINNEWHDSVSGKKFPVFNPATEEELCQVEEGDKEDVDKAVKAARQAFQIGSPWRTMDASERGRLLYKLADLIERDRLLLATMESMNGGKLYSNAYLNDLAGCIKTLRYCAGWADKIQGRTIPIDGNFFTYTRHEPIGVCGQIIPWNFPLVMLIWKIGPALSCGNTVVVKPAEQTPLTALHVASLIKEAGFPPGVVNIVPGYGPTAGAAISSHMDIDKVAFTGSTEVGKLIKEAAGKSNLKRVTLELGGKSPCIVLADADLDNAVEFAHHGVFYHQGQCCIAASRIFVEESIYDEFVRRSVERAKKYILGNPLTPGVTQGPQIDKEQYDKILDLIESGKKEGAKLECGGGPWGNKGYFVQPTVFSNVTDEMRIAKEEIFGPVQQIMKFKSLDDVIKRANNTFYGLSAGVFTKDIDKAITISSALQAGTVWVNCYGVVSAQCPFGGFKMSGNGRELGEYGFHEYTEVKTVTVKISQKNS
The experiment is described as follows: Inhibitor screening using purified enzymes: ALDH1A1 activity, retinoic acid production by HPLC. Type of experiment: biochemical. The settings on record: purified enzyme. From the text:
(§1) ALDHs were cloned into bacterial expression vector for in vitro enzyme assays and into mammalian expression vectors for cell-based enzyme assays. Human ALDH1A1 cDNA and human ALDH2 cDNA were purchased from OriGene (SC321535) and Open Biosystems (MHS4771-99611182), respectively. and human ALDH1A2 cDNA was cloned from human testis RNA using RT-PCR (Population Division of the Department of Economic and Social Affairs of the United Nations Secretariat. World Population prospects: the 2008 revision. Available at http://www.un.org/esa/population/ (Retrieved Sep. 30, 2011)). For bacterial expression, an open reading frame of ALDH1A1 and ALDH2 were subcloned into the pETite vector (Lucigen) with a 5′ histidine-tag and that of ALDH1A2 into a pET28 vector (Novagen) with a 3′ histidine-tag. Correct frame and sequences were verified through DNA sequencing (UW DNA sequencing facility). ALDHs were induced with 1 mM IPTG and purified using His.Bind resin (Novagen, San Diego, Calif.) and stored in a buffer containing 20 mM Hepes (pH 8), 150 mM KCl and 1 mM EDTA as previously described (Fierce, Y., de Morais Vieira, M., Piantedosi, R., Wyss, A., Blaner, W. S., and Paik, J. (2008) In vitro and in vivo characterization of retinoid synthesis from beta-carotene. Archives of biochemistry and biophysics 472, 126-138).
ALDH1A1 and ALDH1A2 activity was determined as previously reported (Beedle M T, Stevison F, Zhong G, Topping T, Hogarth C, Isoherranen N, Griswold M D. Sources of All-Trans Retinal Oxidation Independent of the Aldehyde Dehydrogenase 1A Isozymes Exist in the Postnatal Testis. Biol Reprod. 2018 Sep. 21. doi: 10.1093/biolre/ioy200). Briefly, purified enzymes were incubated in a buffer containing 10 mM HEPES buffer (pH 8.0), 150 mM potassium chloride and 2 mM EDTA with 2 mM NAD. Retinoic acid production was determined using HPLC as previously reported (Amory J K, Muller C H, Shimshoni A J, Isoherranen N, Paik J, Moreb J S, Amory D W, Evanoff R, Goldstein A S, Griswold M D. Suppression of spermatogenesis by bisdichloroacetyldiamines is mediated by inhibition of testicular retinoic acid biosynthesis. Journal of Andrology 2011; 32(1):111-119). Inhibitors were diluted in DMSO and added to the reactions. […] For initial screening of inhibitors for ALDH1A2, 1 μg ALDH1A2, 5 μM all-trans-retinal and 5 μM inhibitors were incubated for 15 min at 37° C. […] For this purpose, 0.5 μg ALDH1A2 and […] were incubated for 5 minutes at 37° C. with varying concentrations of inhibitors. To determine specificity toward ALDH1A2, the IC50 for […]

The target of experiment [2] is T2, ALDH1A2 (Homo sapiens, UniProt O94788).
T2 sequence (O94788 1-518): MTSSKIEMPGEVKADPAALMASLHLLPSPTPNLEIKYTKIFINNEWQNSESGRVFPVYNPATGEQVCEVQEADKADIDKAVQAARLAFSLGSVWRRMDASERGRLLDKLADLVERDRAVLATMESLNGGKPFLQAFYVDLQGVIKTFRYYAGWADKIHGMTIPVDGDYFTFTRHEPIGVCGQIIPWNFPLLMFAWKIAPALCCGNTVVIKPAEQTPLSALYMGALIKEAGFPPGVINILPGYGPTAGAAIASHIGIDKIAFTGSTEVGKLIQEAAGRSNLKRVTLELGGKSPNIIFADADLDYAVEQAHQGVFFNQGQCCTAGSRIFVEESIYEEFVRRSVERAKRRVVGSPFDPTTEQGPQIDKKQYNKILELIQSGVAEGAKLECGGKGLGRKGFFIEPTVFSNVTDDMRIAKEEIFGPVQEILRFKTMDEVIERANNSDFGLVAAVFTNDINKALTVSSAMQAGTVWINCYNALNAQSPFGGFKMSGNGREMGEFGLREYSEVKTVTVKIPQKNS
The experiment is described as follows: Inhibitor screening using purified enzymes: ALDH1A2 activity, retinoic acid production by HPLC (5 uM initial screen, then IC50). Type of experiment: biochemical. Also noted: histidine-tag (C); made in house; host or cells: bacterial expression (pET28 vector, IPTG induction). The settings on record: purified enzyme. In outline: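 Purified His-tagged human enzymes in 10 mM HEPES pH 8.0, 150 mM KCl, 2 mM EDTA with 2 mM NAD, all-trans-retinal substrate; retinoic acid quantified by HPLC. ALDH1A2 initial screen: 1 μg enzyme, 5 μM retinal, 5 μM inhibitor, 15 min, 37° C; IC50 runs: 0.5 μg enzyme, 0.5 μg retinal, 5 min, 37° C.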

For experiment [3], the target named is T2, ALDH1A2. The experiment is described as follows: Cell-based enzyme assay, retinoic acid production in ALDH1A2/H1299 cells. The settings on record: cell-based. The protocol: (§2) ALDH1A1 cDNA clone was purchased transfection-ready, and ALDH1A2 full-length cDNA was subcloned into pcDNA3, a mammalian expression vector. ALDH1A1 and ALDH1A2 were transfected into H1299 cells (CRL5803, ATCC) using Lipofectamine 3000 (Invitrogen) following the manufacturer's instructions. Stably transfected cells were selected with G418 (1.2 mg/ml) and referred to as ALDH1A1/H1299 and ALDH1A2/H1299. For the cell-based enzyme assays,
(§3) H1299 cells were routinely grown in RPMI-1640 (ATCC) supplemented with 10% fetal bovine serum (Atlanta Biologicals) in a 37 C, 5% CO2, moisture-saturated atmosphere. H1299, ALDH1A1/H1299 and ALDH1A2/H1299 cells were seeded into 12-well plates (1×10^5 cells/well) and grown for 2 days to confluence. Confluent cells were treated for 20 hours in the above media excluding serum with 2 μM all-trans-retinal, and varying concentrations of inhibitors. Serum-free media was used for the treatment period to avoid retinoic acid in serum. Retinoic acid concentrations were determined from cells and media, and specificity of inhibitors was determined by comparing retinoic acid levels in the presence and absence of the inhibitors in ALDH1A1- vs. ALDH1A2-expressing cells.

Experiment [4] concerns the target T1, ALDH1A1. The experiment is described as follows: Cell-based enzyme assay, retinoic acid production in ALDH1A1/H1299 cells. The settings on record: cell-based. As for the experimental part:
as §2, §3

The target in another experiment is T3, ALDH2 (Homo sapiens, UniProt P05091).
T3 construct: histidine-tag (N); made in house; host or cells: bacterial expression (pETite vector, IPTG induction)
T3 sequence (P05091 18-517): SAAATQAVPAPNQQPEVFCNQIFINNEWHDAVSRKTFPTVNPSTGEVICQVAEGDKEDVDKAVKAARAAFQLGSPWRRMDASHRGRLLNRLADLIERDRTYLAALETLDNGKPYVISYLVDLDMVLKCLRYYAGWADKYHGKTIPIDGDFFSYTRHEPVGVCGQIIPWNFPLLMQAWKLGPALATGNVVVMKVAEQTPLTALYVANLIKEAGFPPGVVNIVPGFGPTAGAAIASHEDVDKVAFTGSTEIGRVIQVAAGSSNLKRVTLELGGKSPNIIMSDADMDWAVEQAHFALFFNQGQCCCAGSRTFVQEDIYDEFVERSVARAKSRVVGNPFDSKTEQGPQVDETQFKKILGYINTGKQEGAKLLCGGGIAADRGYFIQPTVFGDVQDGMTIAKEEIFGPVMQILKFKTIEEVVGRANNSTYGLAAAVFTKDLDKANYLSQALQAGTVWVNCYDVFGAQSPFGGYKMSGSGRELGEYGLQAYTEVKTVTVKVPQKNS
The experiment is described as follows: Purified ALDH2 assay with propanal, NADH fluorescence. Type of experiment: biochemical. The note with it: purified enzyme.
Description: as §1, with “126-138). […]” for “126-138).”
For this, 2 μg purified ALDH2, 20 μM propanal and varying concentrations of inhibitors were incubated at room temperature. Enzyme activity was determined by measuring fluorescence of NADH (Ex, 350 nm/Em, 460 nm) using a Victor3 plate reader (PerkinElmer), and initial velocity was calculated from two consecutive readings over 1 minute.

A value given as a limit tells only on which side of the number the result lay.

For the compound `O=C(Nc1cccc(F)c1)c1cn(-c2ccccc2)nc1-c1ccc(CNC(=O)C(Cl)Cl)cc1` [Compound 8-64, 3-(4-{[(Dichloroacetyl)amino]methyl}phenyl)-N-(3-fluorophenyl)-1-phenyl-1H-pyrazole-4-carboxamide], the results for the concentration for half-maximal inhibition (IC50) against ALDH1A1 [1] and on ALDH1A2 [2] were 2 µM and 0.015 µM, respectively.
Turning to `CC(=O)c1ccc(-c2nn(-c3ccc(C#N)cc3)cc2C(=O)Nc2cccc(F)c2)cc1` [Compound 316, 3-(4-Acetylphenyl)-N-(3-fluorophenyl)-1-(4-cyanophenyl)-1H-pyrazole-4-carboxamide], the figures for the half-maximal inhibitory concentration (IC50) against ALDH1A1 [1] and at ALDH1A2 [2] were 10.2 µM and 0.6 µM, respectively. In addition, the 50% effective concentration (EC50) (usually the concentration giving half of the maximal effect) was 0.123 µM on ALDH1A2 [3] and 0.28 µM on ALDH1A1 [4].
For the compound `CON(C)C(=O)c1ccc(-c2nn(-c3ccc(C#N)cc3)cc2C(=O)Nc2cccc(F)c2)cc1` [Compound 296], the IC50 (commonly the concentration that gives 50% inhibition) on ALDH1A1 [1] was 9.44 µM; against ALDH1A2 [2], 0.15 µM. Besides, the EC50 at ALDH1A2 [3] turned out to be 0.023 µM; on ALDH1A1 [4], 0.542 µM.
On to `CCOC(=O)c1cn(-c2ccccc2)nc1-c1ccc(S(C)(=O)=O)cc1` [Compound 232, Ethyl 3-[4-(methylsulfonyl)phenyl]-1-phenyl-1H-pyrazole-4-carboxylate], for which the results for the half-maximal effective concentration (EC50) at ALDH1A2 [3] and on ALDH1A1 [4] were 0.317 µM and 0.723 µM, respectively. Also, the 50% inhibitory concentration (IC50) on ALDH2 was over 5 µM.
As to `Cc1ccc(NC(=O)c2cn(-c3ccccc3)nc2-c2ccc(F)cc2)cc1` [Compound 131, 3-(4-Fluorophenyl)-N-(4-methylphenyl)-1-phenyl-1H-pyrazole-4-carboxamide], the figures for the IC50 on ALDH1A1 [1], at ALDH1A2 [2] and against ALDH2 were 0.388 µM, 3.02 µM and 18.8 µM, respectively.
As for “1-[4-(4-Nitrophenyl)-3-(azocan-1-yl)]piperazin-1-yl](1-methyl-1H-pyrrol-2-yl)methanone [Compound N104]”, the IC50 came to 0.141 µM on ALDH1A1 [1] and 6.5 µM against ALDH1A2 [2].
Turning to `Cc1ccccc1-c1nn(-c2ccccc2)cc1C(=O)Nc1cccc(F)c1` [Compound 149, N-(3-Fluorophenyl)-3-(2-methylphenyl)-1-phenyl-1H-pyrazole-4-carboxamide], the IC50 against ALDH1A1 [1] was found to be 0.601 µM; on ALDH1A2 [2] it was 2.15 µM; against ALDH2 it was 4.6 µM.
Consider `N#Cc1ccc(-n2cc(C(=O)Nc3cccc(F)c3)c(-c3ccc(NC(=O)C(Cl)Cl)cc3)n2)cc1` [Compound 310, 3-{4-[(Dichloroacetyl)amino]phenyl}-1-(4-cyanophenyl)-N-(3-fluorophenyl)-1H-pyrazole-4-carboxamide], for which the IC50 against ALDH1A1 [1] is 0.009 µM; against ALDH1A2 [2], 0.065 µM. Further, the results for the EC50 at ALDH1A2 [3] and at ALDH1A1 [4] were 0.245 µM and 0.14 µM, respectively.
Regarding `O=C(Nc1cccc(F)c1)c1cn(-c2ccccc2)nc1-c1ccc(CBr)cc1` [Compound 8-44, 3-[4-(Bromomethyl)phenyl]-N-(3-fluorophenyl)-1-phenyl-1H-pyrazole-4-carboxamide], the half-inhibitory concentration (IC50) came to 3.9 µM against ALDH1A1 [1] and 0.72 µM against ALDH1A2 [2].
As to `CCN(Cc1nn(-c2ccccc2)cc1C(=O)Nc1cccc(F)c1)C(=O)C(Cl)Cl` [Compound 8-54, 3-{[(Dichloroacetyl)(ethyl)amino]methyl}-N-(3-fluorophenyl)-1-phenyl-1H-pyrazole-4-carboxamide], the half-inhibitory concentration (IC50) on ALDH1A1 [1] is 0.092 µM; at ALDH1A2 [2], 3.9 µM.

The values above are taken from patent publication US11548875B2, “Inhibitor compounds for male contraception” (University of Washington, priority 2018, dated 2023).
